# Assay results reported in ChEMBL document CHEMBL1123107, “Synthesis, stereochemistry, and analgesic activity of 4-mono- and 4,4-disubstituted 1,2,3,4,5,6-hexahydro-2,6-methano-3-benzazocines” (1985).
# Calls of active or inactive are those of the source. The calls are words filed in the database; no cut-off is given here.
# Key:
# Mus musculus [1] = organism: Mus musculus; experiment: Compound was evaluated for analgesic activity in a mouse hotplate test; assay type: functional
# Mus musculus [2] = experiment: Compound was evaluated for analgesic activity in a mouse hotplate test; IA= Inactive at the dose level of 20 mg/kg; assay type: functional, organism-based; set-up: dose 20 mg/kg
# Mus musculus [3] = organism: Mus musculus; experiment: Compound was evaluated for analgesic activity in a mouse hotplate test; b= low level of activity exhibited which did not follow a dose-response relationship; assay type: functional, organism-based
# Mus musculus [4] = experiment: Compound was evaluated for analgesic activity in a mouse hotplate test; IA= Inactive at the dose level of 50 mg/kg; assay type: functional, organism-based; set-up: dose 50 mg/kg
Structure (SMILES),ED50 (Mus musculus [1]),also measured
C[C@H]1CC2(C)CC(Cc3ccccc32)N1C (some centres undefined),24.7 mg/kg,–
C=CCN1C(C)CC2(C)CC1Cc1ccc(O)cc12 (centres undefined),4.2 mg/kg,–
CC1CC2(C)CC(Cc3ccc(O)cc32)N1C (centres undefined),1.1 mg/kg,–
C=CC[C@@]1(C)CC2(C)CC(Cc3ccccc32)N1C (some centres undefined),–,ED50 (Mus musculus [2]): inactive
CC1C2Cc3ccccc3C1(C)CC(CCc1ccccc1)N2C (centres undefined),–,ED50 (Mus musculus [3]): Low level of activity
CC1CC2(C)CC(Cc3ccc(O)cc32)N1CC1CC1 (centres undefined),2.4 mg/kg,–
CN1CC[C@]23c4c5ccc(O)c4O[C@H]2[C@@H](O)C=C[C@H]3[C@H]1C5.CN1CC[C@]23c4c5ccc(O)c4O[C@H]2[C@@H](O)C=C[C@H]3[C@H]1C5.O=S(=O)(O)O,1.2 mg/kg,–
CC1CN(C)C2Cc3ccc(O)cc3C1(C)C2 (centres undefined),–,ED50 (Mus musculus [4]): inactive
CN1C2Cc3ccccc3C(C)(C2)CC1(C)Cc1ccccc1 (centres undefined),–,ED50 (Mus musculus [3]): Low level of activity
C=CC[C@]1(C)CC2(C)CC(Cc3ccccc32)N1C (some centres undefined),3.7 mg/kg,–
CCC1CC2(C)c3ccccc3CC(C2C)N1C (centres undefined),–,ED50 (Mus musculus [2]): inactive
C[C@@H]1CC2(C)CC(Cc3ccccc32)N1C (some centres undefined),10.6 mg/kg,–
CC1CC2(C)c3ccccc3CC(C2C)N1C (centres undefined),14.8 mg/kg,–
CC1C2Cc3ccccc3C1(C)CC(Cc1ccccc1)N2C (centres undefined),–,ED50 (Mus musculus [3]): Low level of activity
